The source of these data is ChEMBL document CHEMBL1201862, “PubChem BioAssay data set” (2004).

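All cell lines were grown in 96-well plates and treated with compound for 48 hours. The concentration for 50% growth inhibition is given as GI50.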 Activity calls are given as the source filed them. Cut-off read from the data, not from the text of the source: active = GI50 up to about 1.1 µM and inactive = higher. Some results are limits rather than exact numbers.

Some test systems named below: A498; UO-31; SK-OV-3; SR; M14; NCI-H460; HOP-62; SF-539; COLO 205; SNB-19; MOLT-4; NCI-H522; ACHN; CCRF-CEM; OVCAR-5; CAKI-1; A549; MDA-MB-231; HCT-116; SW-620.
Assay in all cases: NCI-60 cell line screen, 48 h

As to `N#Cc1c(N)nc2[nH]nc(N)c2c1-c1ccc(Cl)cc1`, the GI50 was 0.656 µM (active) in the test on A498; 2.42 µM (inactive) with UO-31; 2.56 µM (inactive) with SK-OV-3; > 22.6 µM (inactive) with SR; 3.33 µM (inactive) with M14; 3.15 µM (inactive) with NCI-H460. For the same molecule, the GI50 is 6.75 µM (inactive) with HOP-62; 6.38 µM (inactive) with SF-539; 1.48 µM (inactive) in the test on COLO 205; 29.2 µM (inactive) in the test with SNB-19; 2.54 µM (inactive) with MOLT-4; 2.56 µM (inactive) in the test on NCI-H522. Also, the GI50 with ACHN was 2.49 µM (inactive); in the test on CCRF-CEM, 4.95 µM (inactive); in the test with OVCAR-5, 11.9 µM (inactive); in the test with CAKI-1 it was 3.02 µM (inactive); in the test on A549, 5.66 µM (inactive); in the test with MDA-MB-231, 2.65 µM (inactive). Moreover, the GI50 in the test with HCT-116 was 5.52 µM (inactive); in the test with SW-620, 13.8 µM (inactive).
